Reference: US8318949B2, “Organic compounds” (Novartis AG, priority 2008, dated 2012)

Assays:
[1] = target: T1, stearoyl-CoA desaturase (SCD1) (Mus musculus, UniProt P13516); test: Stearoyl-CoA desaturase inhibition, mouse liver microsomes (release of 3H2O from [9,10-3H]stearoyl-CoA); format: biochemical; settings: 15 min incubation, 25° C., read-out: Microsomal IC50
T1 construct: Male ICR outbread mice, on a high-carbohydrate, low fat diet; from tissue; host or cells: liver microsomes of male ICR mice on a high-carbohydrate, low fat diet
T1 sequence (P13516 1-355): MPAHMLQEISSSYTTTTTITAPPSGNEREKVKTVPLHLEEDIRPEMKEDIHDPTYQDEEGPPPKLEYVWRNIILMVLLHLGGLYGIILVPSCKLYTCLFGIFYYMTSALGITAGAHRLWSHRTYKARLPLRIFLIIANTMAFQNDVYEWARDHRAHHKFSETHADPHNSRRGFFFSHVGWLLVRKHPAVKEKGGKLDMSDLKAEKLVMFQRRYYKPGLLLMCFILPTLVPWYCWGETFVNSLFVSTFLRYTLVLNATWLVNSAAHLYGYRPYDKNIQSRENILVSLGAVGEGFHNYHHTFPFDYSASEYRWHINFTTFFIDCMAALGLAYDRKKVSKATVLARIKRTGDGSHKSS
Source text: The identification of compounds of the invention as SCD inhibitors was readily accomplished using the SCD enzyme and microsomal assay procedure described in Shanklin J. and Summerville C., Proc. Natl. Acad. Sci. USA (1991), Vol. 88, pp. 2510-2514.
Measuring Stearoyl-CoA Desaturase Inhibition Activity of a Test Compound Using Mouse Liver Microsomes
The identification of compounds of the invention as SCD inhibitors was readily accomplished using the SCD microsomal assay procedure described in Shanklin J. and Summerville C., Proc. Natl. Acad. Sci. USA (1991), Vol. 88, pp. 2510-2514.
Male ICR outbread mice, on a high-carbohydrate, low fat diet, under light halothane (15% in mineral oil) anesthesia are sacrificed by exsanguination during periods of high enzyme activity. Livers are immediately rinsed with cold 0.9% NaCl solution, weighed and minced with scissors. All procedures are performed at 4° C. unless specified otherwise. Livers are homogenized in a solution (1/3 w/v) containing 0.25 M sucrose, 62 mM potassium phosphate buffer (pH 7.0), 0.15 M KCl, 15 mM N-acetyleysteine, 5 mM MgCl2, and 0.1 mM EDTA using 4 strokes of a Potter-Elvehjem tissue homogenizer. The homogenate is centrifuged at 10,400×g for 20 min to eliminate mitochondria and cellular debris. The supernatant is filtered through a 3-layer cheesecloth and centrifuged at 105,000×g for 60 min. The microsomal pellet is gently resuspended in the same homogenization solution with a small glass/teflon homogenizer and stored at −70° C. The absence of mitochondrial contamination is enzymatically assessed. The protein concentration is measured using bovine serum albumin as the standard.
Desaturase activity is measured as the release of ^3H2O from [9,10-^3H]stearoyl-CoA. Reactions per assay point conditions are as follows: 2 μL 1.5 mM stearoyl-CoA, 0.25 μL 1 mCi/mL ^3H stearoyl CoA, 10 μL 20 mM NADH, 36.75 μL 0.1 M PK buffer (K2HPO4/NaH2PO4, pH 7.2). The test compound or control solution is added in a 1 μL volume. Reactions are started by adding 50 μL of microsomes (1.25 mg/mL). The plates are mixed and after 15 min incubation on a heating block (25° C.), the reactions are stopped by the addition of 10 μL 60% PCA. An aliquot of 100 μL is then transferred to a filter plate pretreated with charcoal and the plate centrifuged at 4000 rpm for 1 minute. The flow through containing the ^3H2O released by the SCD1 desaturation reaction is added to scintillation fluid and the radioactivity measured in a Packard TopCount. The data is analysed to identify the IC50 for test compounds and reference compounds.
The activity was defined in terms of % SCD enzyme activity remaining at the desired concentration of the test compound or as the IC50 concentration. The IC50 (affinity) of the example compounds toward the stearoyl-CoA desaturase is comprised between around […] and 0.0001 μM or between around 5 μM and 0.0001 μM or between around 1 μM and 0.0001 μM.

Structure (SMILES)	IC50 [1] [nM]	melting point [°C]
Cc1nc(-n2cnn(C(C)c3ccccc3)c2=O)sc1C(=O)NCc1csc(C(F)(F)F)n1 (centres unmarked) [Example 20-17, 4-methyl-2-(5-oxo-1-(1-phenylethyl)-1H-1,2,4-triazol-4(5H)-yl)-N-((2-(trifluoromethyl)-thiazol-4-yl)-methyl)thiazole-5-carboxamide]	208	–
Cc1nc(-n2cnn(Cc3cc(F)cc(F)c3)c2=O)sc1C(=O)NCc1ccccn1 [Example 20-52, 2-(1-(3,5-difluorobenzyl)-5-oxo-1H-1,2,4-triazol-4(5H)-yl)-4-methyl-N-(pyridin-2-ylmethyl)-thiazole-5-carboxamide]	13	–
Cc1nc(N2C(=O)N(Cc3ccc(F)cc3)C3CC32)sc1C(=O)NCc1cccnc1 (centres unmarked) [Example 19, 2-(4-(4-fluorobenzyl)-3-oxo-2,4-diazabicyclo[3.1.0]hexan-2-yl)-4-methyl-N-(pyridin-3-ylmethyl)thiazole-5-carboxamide]	1210	–
Cc1nc(-c2sc(N3CCN(Cc4ccc(OC(F)(F)F)cc4)C3=O)nc2C)n[nH]1 [Example 20-57, 1-(4-methyl-5-(5-methyl-1H-1,2,4-triazol-3-yl)thiazol-2-yl)-3-(4-(trifluoromethoxy)-benzyl)imidazolidin-2-one]	119	–
Cc1nc(N2CCN(Cc3cc(Cl)cc(Cl)c3)C2=O)sc1C(=O)NCc1ccccn1 [Example 20-90, 2-(3-(3,5-dichlorobenzyl)-2-oxoimidazolidin-1-yl)-4-methyl-N-(pyridin-2-ylmethyl)thiazole-5-carboxamide]	8	–
Cc1nc(N2CCN(Cc3ccc(S(C)(=O)=O)cc3)C2=O)sc1C(N)=O [Example 20-133, 4-methyl-2-(3-(4-(methylsulfonyl)benzyl)-2-oxoimidazolidin-1-yl)thiazole-5-carboxamide]	527	–
Cc1nc(-n2cnn(CC3CC3(F)F)c2=O)sc1C(=O)NCc1cncs1 (centres unmarked) [Example 20-12, 2-(1-((2,2-difluorocyclopropyl)methyl)-5-oxo-1H-1,2,4-triazol-4(5H)-yl)-4-methyl-N-(thiazol-5-ylmethyl)thiazole-5-carboxamide]	18	–
Cc1nc(-n2cnn(C(C)c3ccccc3)c2=O)sc1C(=O)NCc1cncs1 (centres unmarked) [Example 20-10, 4-methyl-2-(5-oxo-1-(1-phenylethyl)-1H-1,2,4-triazol-4(5H)-yl)-N-(thiazol-5-ylmethyl)thiazole-5-carboxamide]	8	–
Cc1nc(-n2cnn(CC3CC3(F)F)c2=O)sc1C(=O)NCc1cnn(C)c1 (centres unmarked) [Example 20-76, 2-(1-((2,2-difluorocyclopropyl)methyl)-5-oxo-1H-1,2,4-triazol-4(5H)-yl)-4-methyl-N-((1-methyl-1H-pyrazol-4-yl)methyl)thiazole-5-carboxamide]	551	–
Cc1nc(-n2cnn(Cc3ccc(F)cc3)c2=O)sc1C(=O)NCc1ccc(C(F)(F)F)nc1 [Example 20-8, 2-(1-(4-fluorobenzyl)-5-oxo-1H-1,2,4-triazol-4(5H)-yl)-4-methyl-N-((6-(trifluoromethyl)pyridin-3-yl)methyl)thiazole-5-carboxamide]	1720	–
Cc1nc(N2CCN(Cc3ccc(C(F)(F)F)cc3)C2=O)sc1C(=O)NCc1ccc2nccn2c1 [Example 20-22, N-(imidazo[1,2-a]pyridin-6-ylmethyl)-4-methyl-2-(2-oxo-3-(4-(trifluoromethyl)-benzyl)imidazolidin-1-yl)-thiazole-5-carboxamide]	709	–
Cc1nc(N2CCN(CCC3CC3)C2=O)sc1C(=O)NCc1ccccn1 [Example 20-103, 2-(3-(2-cyclopropylethyl)-2-oxoimidazolidin-1-yl)-4-methyl-N-(pyridin-2-ylmethyl)thiazole-5-carboxamide]	38	–
Cc1nc(-n2cnn(C(C)c3ccccc3)c2=O)sc1C(N)=O (centres unmarked) [Example 20-6, 4-methyl-2-(5-oxo-1-(1-phenylethyl)-1H-1,2,4-triazol-4(5H)-yl)thiazole-5-carboxamide]	80	–
Cc1nc(N2CCN(Cc3cccc(F)c3)C2=O)sc1C(N)=O [Example 20-24, 2-(3-(3-fluorobenzyl)-2-oxoimidazolidin-1-yl)-4-methylthiazole-5-carboxamide]	40	–
Cc1nc(N2CCN(CC(C)C)C2=O)sc1C(=O)NCc1cccnc1 [Example 12.18, 2-(3-isobutyl-2-oxoimidazolidin-1-yl)-4-methyl-N-(pyridin-3-ylmethyl)thiazole-5-carboxamide]	156	–
Cc1nc(-n2cnn(Cc3ccc(OC(F)(F)F)cc3)c2=O)sc1C(=O)NCc1ccccn1 [Example 20-54, 4-methyl-2-(5-oxo-1-(4-(trifluoromethoxy)-benzyl)-1H-1,2,4-triazol-4(5H)-yl)-N-(pyridin-2-ylmethyl)-thiazole-5-carboxamide]	20	–
Cc1nc(-n2cnn(C(C)c3ccccc3)c2=O)sc1C(=O)NCc1cccnc1 (centres unmarked) [Example 20-5, 4-methyl-2-(5-oxo-1-(1-phenylethyl)-1H-1,2,4-triazol-4(5H)-yl)-N-(pyridin-3-ylmethyl)thiazole-5-carboxamide]	98	–
Cc1cc(CNC(=O)c2sc(N3CCN(CC4CC4)C3=O)nc2C)no1 [Example 20-83, 2-(3-(cyclopropylmethyl)-2-oxoimidazolidin-1-yl)-4-methyl-N-((5-methylisoxazol-3-yl)methyl)thiazole-5-carboxamide]	11	–
Cc1nc(N2CCN(CCCC(F)(F)F)C2=O)sc1C(=O)NCc1cccnc1 [Example 12.3, 4-methyl-2-(2-oxo-3-(4,4,4-trifluorobutyl)imidazolidin-1-yl)-N-(pyridin-3-ylmethyl)thiazole-5-carboxamide]	–	167 to 169
Cc1nc(N2CCN(CC(C)C)C2=O)sc1C(N)=O [Example 1.6, 2-(3-isobutyl-2-oxoimidazolidin-1-yl)-4-methylthiazole-5-carboxamide]	–	212 to 215
Cc1nc(N2CCN(CC3CC3)C2=O)sc1C(=O)NCc1ccncn1 [Example 12.10, 2-(3-(cyclopropylmethyl)-2-oxoimidazolidin-1-yl)-4-methyl-N-(pyrimidin-4-ylmethyl)thiazole-5-carboxamide]	–	188 to 191
Cc1cc(CNC(=O)c2sc(N3C(=O)N(Cc4ccc(F)cc4)C[C@@H]3C)nc2C)no1 [Example 2.17, (S)-2-(3-(4-fluorobenzyl)-5-methyl-2-oxoimidazolidin-1-yl)-4-methyl-N-((5-methylisoxazol-3-yl)methyl)thiazole-5-carboxamide]	–	174 to 175
Cc1nc(N2CCN(Cc3cc(F)cc(F)c3)C2=O)sc1C(N)=O [Example 1.8, 2-(3-(3,5-difluorobenzyl)-2-oxoimidazolidin-1-yl)-4-methylthiazole-5-carboxamide]	–	> 200
Cc1nc(N2CCN(Cc3ccc(F)cc3)C2=O)sc1C(=O)NCc1cocn1 [Example 12.16, 2-(3-(4-fluorobenzyl)-2-oxoimidazolidin-1-yl)-4-methyl-N-(oxazol-4-ylmethyl)thiazole-5-carboxamide]	–	188 to 191
Cc1nc(N2CCN(CC3CC3)C2=O)sc1C(N)=O [Example 1.5, 2-(3-(cyclopropylmethyl)-2-oxoimidazolidin-1-yl)-4-methylthiazole-5-carboxamide]	–	198 to 200
Cc1cc(CNC(=O)c2sc(N3C[C@@H](C)N(Cc4ccc(F)cc4)C3=O)nc2C)no1 [Example 2.11, (R)-2-(3-(4-fluorobenzyl)-4-methyl-2-oxoimidazolidin-1-yl)-4-methyl-N-((5-methylisoxazol-3-yl)methyl)thiazole-5-carboxamide]	–	139 to 140
